Assay in all cases: biochemical
Common to all, as to assay type: binding

The target in experiment [1] is HLA B*1501 (Homo sapiens, UniProt P01889, A329T/A93T/A95T/C349S/D201E/D98Y/E187L/E204Q/E69M/E70A/K202T/N87E/Q94N/R155S/R180W/S121R/S35A/S48A/V306I/V36M/Y140S/Y91S).
Experiment [2] deals with HLA B*0801 (Homo sapiens, UniProt P01889, A93T/A95T/D138N/E176V/E187T/K202T/Q94N/R180D/S35A/V36M/Y33D/Y91F).
Experiment [3] has as its target HLA A*3001 (Homo sapiens, UniProt P04439, D140H/D185E/E176W/F33S/G80R/H175R/K168Q/R138E/R41S).
The target of experiment [4] is HLA B*1503 (Homo sapiens, UniProt P01889, A329T/A93T/A95T/C349S/D201E/D98Y/E187L/E204Q/K202T/N87E/Q94N/R155S/R180L/S121R/S35A/V306I/V36M/Y140S/Y91S).

Molecules are shown by their SMILES. Where a SMILES comes first, the peptide text is derived from it.

Sequence of HLA A*3001 (P04439 25-365 limits assumed, stated change not applied): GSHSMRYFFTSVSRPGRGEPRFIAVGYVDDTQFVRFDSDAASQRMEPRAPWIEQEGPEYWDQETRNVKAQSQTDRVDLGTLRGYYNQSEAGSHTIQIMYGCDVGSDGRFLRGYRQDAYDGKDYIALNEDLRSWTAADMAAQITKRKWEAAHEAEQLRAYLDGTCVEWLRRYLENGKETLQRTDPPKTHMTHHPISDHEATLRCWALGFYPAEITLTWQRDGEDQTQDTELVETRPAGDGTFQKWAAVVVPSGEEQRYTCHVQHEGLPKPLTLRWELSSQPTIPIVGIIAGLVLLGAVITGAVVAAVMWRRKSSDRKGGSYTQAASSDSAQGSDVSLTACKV

`CC(C)C[C@H](NC(=O)[C@@H](N)CC(C)C)C(=O)N[C@@H](CCCCN)C(=O)N1CCC[C@H]1C(=O)N[C@@H](CCCNC(=N)N)C(=O)N[C@@H](CS)C(=O)N[C@@H](CC(N)=O)C(=O)N1CCC[C@H]1C(=O)N[C@@H](C)C(=O)O` [3102.0901] (H-LLKPRCNPA-OH): the figures for the IC50 in experiment [1] and in experiment [2] were 21 nM and 1.2 nM, respectively.
For `CC[C@H](C)[C@H](NC(=O)[C@H](CO)NC(=O)[C@H](CCCNC(=N)N)NC(=O)[C@H](CO)NC(=O)[C@H](CCSC)NC(=O)[C@H](CO)NC(=O)[C@H](CCCNC(=N)N)NC(=O)[C@@H](NC(=O)[C@@H](N)CO)[C@@H](C)CC)C(=O)O` [3102.0527] (H-SIRSMSRSI-OH) the same measures were 363 nM and 77 nM.
Taken in the same sequence, the figures for `CC[C@H](C)[C@H](NC(=O)[C@@H]1CCCN1C(=O)[C@H](CC(C)C)NC(=O)[C@H](Cc1ccccc1)NC(=O)[C@H](CO)NC(=O)[C@H](CCSC)NC(=O)[C@H](CCCCN)NC(=O)[C@H](CO)NC(=O)[C@@H](N)CCC(=O)O)C(=O)O` [3102.0979] (H-ESKMSFLPI-OH) were 358 nM and 1.1 nM.
Turning to `CSCC[C@H](N)C(=O)N[C@@H](Cc1ccccc1)C(=O)N[C@@H](CCCNC(=N)N)C(=O)N[C@@H](CCCCN)C(=O)N[C@@H](CCCCN)C(=O)N[C@@H](CCCNC(=N)N)C(=O)N[C@@H](CC(C)C)C(=O)N[C@@H](Cc1ccccc1)C(=O)N[C@@H](CC(C)C)C(=O)O` [3102.0580] (H-MFRKKRLFL-OH), the half-maximal inhibitory concentration (IC50) amounted to 10 nM in experiment [3] and 1.1 nM in experiment [2].
Regarding `CC[C@H](C)[C@H](NC(=O)[C@H](CO)NC(=O)[C@@H](N)CCCNC(=N)N)C(=O)N[C@@H](CCCNC(=N)N)C(=O)N[C@@H](CCCCN)C(=O)N[C@@H](Cc1ccccc1)C(=O)N[C@@H](CC(N)=O)C(=O)N[C@H](C(=O)N[C@@H](CCSC)C(=O)O)[C@@H](C)O` [3102.1003] (H-RSIRKFNTM-OH), the IC50 was 4.4 nM in experiment [1] and 17 nM in experiment [2].
Taken in the same sequence, the figures for `CC(C)C[C@H](NC(=O)[C@H](C)NC(=O)[C@H](CCCNC(=N)N)NC(=O)[C@H](Cc1c[nH]cn1)NC(=O)[C@H](CC(C)C)NC(=O)[C@H](Cc1c[nH]c2ccccc12)NC(=O)[C@H](CCCNC(=N)N)NC(=O)[C@@H](NC(=O)[C@@H](N)Cc1ccccc1)C(C)C)C(=O)O` [3102.0526] (H-FVRWLHRAL-OH) were 16 nM and 1 nM.
Taken in the same sequence, the figures for `CC(C)[C@H](NC(=O)[C@H](C)NC(=O)[C@H](CO)NC(=O)[C@H](Cc1ccc(O)cc1)NC(=O)[C@H](CCCNC(=N)N)NC(=O)CNC(=O)[C@H](Cc1ccc(O)cc1)NC(=O)[C@@H](NC(=O)[C@@H](N)CCCCN)C(C)C)C(=O)O` [3102.0117] (H-KVYGRYSAV-OH) were 95 nM and 4.2 nM.
For `CC(C)[C@H](NC(=O)[C@H](CCCNC(=N)N)NC(=O)[C@@H](N)Cc1ccccc1)C(=O)N[C@H](C(=O)N[C@@H](CCCCN)C(=O)N1CCC[C@H]1C(=O)N[C@@H](CC(N)=O)C(=O)N[C@@H](CO)C(=O)N[C@@H](Cc1ccccc1)C(=O)O)C(C)C` [3102.1127] (H-FRVVKPNSF-OH), the half-maximal inhibitory concentration (IC50) in experiment [1] stood at 108 nM; in experiment [2], 91 nM.
Taken in the same sequence, the figures for `CC[C@H](C)[C@H](NC(=O)[C@H](C)N)C(=O)N[C@@H](CC(N)=O)C(=O)N[C@@H](CC(N)=O)C(=O)N[C@@H](CCCNC(=N)N)C(=O)N[C@H](C(=O)N[C@@H](CS)C(=O)N[C@H](C(=O)N[C@@H](CCSC)C(=O)O)C(C)C)[C@@H](C)CC` [3102.0865] (H-AINNRICVM-OH) were 51 nM and 424 nM.
Consider `CC[C@H](C)[C@H](NC(=O)[C@H](CS)NC(=O)[C@H](CS)NC(=O)[C@H](Cc1c[nH]cn1)NC(=O)[C@H](CCCNC(=N)N)NC(=O)[C@H](CO)NC(=O)[C@@H](NC(=O)[C@H](CCSC)NC(=O)[C@@H](N)CO)[C@@H](C)CC)C(=O)O` [3102.0973] (H-SMISRHCCI-OH), for which the IC50 in experiment [1] turned out to be 81 nM; in experiment [2], 1.3 nM.
For `CC[C@H](C)[C@H](NC(=O)[C@@H](N)CC(C)C)C(=O)N[C@@H](CCCNC(=N)N)C(=O)N[C@@H](CC(N)=O)C(=O)N[C@@H](CCCCN)C(=O)N[C@@H](CCCNC(=N)N)C(=O)N[C@@H](CC(C)C)C(=O)N[C@@H](CO)C(=O)N[C@@H](CC(C)C)C(=O)O` [3102.0638] (H-LIRNKRLSL-OH) the same measures were 455 nM and 0.78 nM.
Consider `CC[C@H](C)[C@H](NC(=O)[C@@H](N)Cc1ccccc1)C(=O)N[C@@H](Cc1ccccc1)C(=O)N[C@@H](CC(C)C)C(=O)N[C@@H](CCCCN)C(=O)N[C@@H](CCCCN)C(=O)N[C@@H](CC(N)=O)C(=O)N[C@@H](CCC(=O)O)C(=O)N[C@@H](CC(C)C)C(=O)O` [3102.0673] (H-FIFLKKNEL-OH), for which the IC50 in experiment [3] was determined as 44 nM; in experiment [2], 97 nM.
Take `CC[C@H](C)[C@H](NC(=O)[C@H](CCCCN)NC(=O)[C@H](CC(N)=O)NC(=O)[C@H](CCCCN)NC(=O)[C@@H](NC(=O)[C@@H](N)Cc1ccccc1)[C@@H](C)CC)C(=O)N[C@@H](Cc1c[nH]cn1)C(=O)N[C@@H](CC(C)C)C(=O)N[C@@H](CC(C)C)C(=O)O` [3102.0551] (H-FIKNKIHLL-OH): the IC50 in experiment [1] amounted to 98 nM; in experiment [2], 0.82 nM.
Take `CC[C@H](C)[C@H](NC(=O)[C@@H](N)CC(C)C)C(=O)NCC(=O)N[C@@H](C)C(=O)N[C@@H](CCCNC(=N)N)C(=O)N[C@@H](CCCNC(=N)N)C(=O)N[C@H](C(=O)N[C@@H](CO)C(=O)N[C@@H](Cc1ccccc1)C(=O)O)[C@@H](C)O` [3102.0774] (H-LIGARRTSF-OH): the figures for the IC50 in experiment [1] and in experiment [2] were 40 nM and 1.5 nM, respectively.
Taken in the same sequence, the figures for `CC[C@H](C)[C@H](NC(=O)[C@H](CCCCN)NC(=O)[C@@H]1CCCN1C(=O)[C@H](CCCNC(=N)N)NC(=O)[C@@H](NC(=O)[C@@H](N)CC(C)C)[C@@H](C)CC)C(=O)N[C@@H](CC(C)C)C(=O)N[C@@H](CO)C(=O)N[C@@H](CCSC)C(=O)O` [3102.0983] (H-LIRPKILSM-OH) were 10 nM and 0.55 nM.
Take `CSCC[C@H](NC(=O)[C@H](CC(=O)O)NC(=O)[C@@H](NC(=O)[C@H](Cc1ccccc1)NC(=O)[C@H](Cc1c[nH]cn1)NC(=O)[C@H](CCSC)NC(=O)[C@H](CO)NC(=O)[C@H](CCC(N)=O)NC(=O)[C@@H](N)Cc1ccccc1)[C@@H](C)O)C(=O)O` [3102.1283] (H-FQSMHFTDM-OH): the half-inhibitory concentration (IC50) in experiment [4] turned out to be 5.1 nM; in experiment [2], 84 nM.
Turning to `CC[C@H](C)[C@H](NC(=O)[C@@H](NC(=O)[C@H](CC(C)C)NC(=O)CNC(=O)[C@H](C)NC(=O)[C@H](Cc1ccc(O)cc1)NC(=O)[C@H](CCCCN)NC(=O)[C@H](CC(C)C)NC(=O)[C@@H](N)CC(C)C)[C@@H](C)O)C(=O)O` [3102.1023] (H-LLKYAGLTI-OH), the IC50 worked out at 4.5 nM in experiment [1] and 105 nM in experiment [2].
Regarding `CC[C@H](C)[C@H](N)C(=O)N[C@@H](CC(C)C)C(=O)N[C@@H](Cc1c[nH]cn1)C(=O)N[C@@H](Cc1c[nH]cn1)C(=O)N[C@@H](Cc1c[nH]cn1)C(=O)N[C@@H](CCCNC(=N)N)C(=O)N[C@@H](CC(N)=O)C(=O)N[C@H](C(=O)N[C@@H](Cc1ccccc1)C(=O)O)C(C)C` [3102.1250] (H-ILHHHRNVF-OH), the IC50 in experiment [4] came to 1.3 nM; in experiment [2], 13 nM.
Turning to `CC[C@H](C)[C@H](NC(=O)[C@H](Cc1ccccc1)NC(=O)[C@H](CCSC)NC(=O)[C@H](Cc1ccccc1)NC(=O)[C@H](CCCCN)NC(=O)[C@H](CC(N)=O)NC(=O)[C@H](CCCNC(=N)N)NC(=O)[C@@H](NC(=O)[C@@H](N)CCCNC(=N)N)[C@@H](C)CC)C(=O)O` [3102.0998] (H-RIRNKFMFI-OH), the IC50 in experiment [3] stood at 0.069 nM; in experiment [2], 1.6 nM.
As for `CC[C@H](C)[C@H](NC(=O)[C@H](Cc1ccccc1)NC(=O)[C@H](CCCCN)NC(=O)[C@@H](NC(=O)[C@@H](N)Cc1ccc(O)cc1)[C@@H](C)CC)C(=O)N[C@@H](Cc1ccccc1)C(=O)N[C@@H](CC(C)C)C(=O)N[C@@H](CCC(N)=O)C(=O)N[C@@H](CCSC)C(=O)O` [3102.0918] (H-YIKFIFLQM-OH), the IC50 in experiment [2] was 8.6 nM.
`CC(C)C[C@H](NC(=O)[C@H](CO)NC(=O)CNC(=O)[C@H](Cc1ccccc1)NC(=O)[C@@H](NC(=O)[C@H](CCC(N)=O)NC(=O)[C@H](CCCCN)NC(=O)[C@H](Cc1ccccc1)NC(=O)[C@@H](N)Cc1ccccc1)[C@@H](C)O)C(=O)O` [3102.0697] (H-FFKQTFGSL-OH) registered an IC50 in experiment [2] of 0.74 nM. Against the preceding compound, the IC50 is about 12-fold lower.
Same read-out and setting: next, `CC(C)C[C@H](NC(=O)[C@H](Cc1ccccc1)NC(=O)[C@H](CCC(=O)O)NC(=O)[C@H](Cc1ccccc1)NC(=O)[C@H](CCCCN)NC(=O)[C@H](CCCCN)NC(=O)[C@H](CC(C)C)NC(=O)[C@H](CC(C)C)NC(=O)CN)C(=O)O` [3102.0771] (H-GLLKKFEFL-OH): 47 nM.
The same measure, in the same setting: next, `CSCC[C@H](NC(=O)[C@H](CC(N)=O)NC(=O)[C@@H](N)CCC(=O)O)C(=O)N[C@@H](CC(C)C)C(=O)N[C@@H](CCCNC(=N)N)C(=O)N[C@@H](CO)C(=O)N[C@@H](CCSC)C(=O)N1CCC[C@H]1C(=O)N[C@H](C(=O)O)C(C)C` [3102.0748] (H-ENMLRSMPV-OH): 0.21 nM; `CC[C@H](C)[C@H](NC(=O)[C@H](CO)NC(=O)[C@H](Cc1c[nH]cn1)NC(=O)[C@H](Cc1ccc(O)cc1)NC(=O)[C@H](CCCNC(=N)N)NC(=O)[C@@H]1CCCN1C(=O)[C@@H](N)Cc1ccccc1)C(=O)N[C@@H](CCC(=O)O)C(=O)N[C@@H](CC(C)C)C(=O)O` [3102.0626] (H-FPRYHSIEL-OH): 0.49 nM.

Broadly, the IC50 is the concentration that inhibits the measured activity by half. Low values mean greater potency, high ones weaker potency.

Source of the values: PMC2248166, “Quantitative peptide binding motifs for 19 human and mouse MHC class I molecules derived using positional scanning combinatorial peptide libraries” (Immunome Research, 2008).
